We go through twelve compounds from PubChem BioAssay (NCI).

Some test systems named below: NCI/ADR-RES ovarian; HT29 colon; KM12 colon; SR leukemia; SNB-78 CNS; DMS 273 small cell lung; LXFL 529 NSCLC; HOP-18 NSCLC; XF 498 CNS; HCT-116 colon; MALME-3M melanoma; OVCAR-3 ovarian; DLD-1 colon.
What all share (assay): NCI tumour cell line growth inhibition, 48 h

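Where inhibition never reached the appropriate level, the endpoint shown equals the highest concentration tested. Otherwise, values were interpolated linearly from a five-concentration, 48-hour dose response in 96-well plates. GI50 marks 50% less growth. At the TGI there is no net growth.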

Consider `C[C@H](N[C@H]1CCC[C@]1(O)C#Cc1ccc2c(c1)OCO2)c1ccccc1`, for which the TGI with NCI/ADR-RES ovarian, in the assay with HT29 colon, with KM12 colon and in the assay with SR leukemia was > 25 µM throughout.
Take `N#CCCOCN(CO)c1nc(N(CO)COCCC#N)nc(N(CO)COCCC#N)n1`: the TGI is > 100 µM in the assay with SNB-78 CNS; 32.8 µM in the assay with DMS 273 small cell lung; 69.9 µM with HT29 colon; 42.5 µM with LXFL 529 NSCLC; 59.6 µM in the assay on HOP-18 NSCLC; 31.5 µM in the assay on XF 498 CNS. Also, the TGI was 63.8 µM in the assay on HCT-116 colon; 46.9 µM in the assay on MALME-3M melanoma; 59.3 µM with OVCAR-3 ovarian; 75.9 µM in the assay with DLD-1 colon; > 100 µM in the assay with KM12 colon; 41.7 µM in the assay with SR leukemia.
As for `COc1cc2c(cc1OC)C1Cc3cc(OC)c(OC)cc3C(C2)O1`, the TGI in the assay on NCI/ADR-RES ovarian, in the assay on HT29 colon, in the assay with HCT-116 colon, with OVCAR-3 ovarian and with KM12 colon was > 100 µM throughout.
For `CCOC(=O)C(=O)Nc1c(CC)cccc1C(C)CC` (centres undefined), the TGI in the assay with SNB-78 CNS, in the assay on DMS 273 small cell lung, in the assay on HT29 colon, with LXFL 529 NSCLC, with HOP-18 NSCLC and in the assay on XF 498 CNS was > 100 µM in each case. In addition, the TGI in the assay on HCT-116 colon, in the assay with MALME-3M melanoma, in the assay with OVCAR-3 ovarian, in the assay with DLD-1 colon, in the assay on KM12 colon and in the assay on SR leukemia was > 100 µM throughout.
On to `CCCC1=C(C(=O)OCC)C(c2ccccc2OC)C(C#N)=C(N)O1` (centres undefined), for which the GI50 in the assay on NCI/ADR-RES ovarian was 37.6 µM; in the assay with HT29 colon, 34.4 µM; in the assay with HCT-116 colon it was 31.8 µM; in the assay on MALME-3M melanoma it was 27.8 µM; with OVCAR-3 ovarian, 67.1 µM; with KM12 colon, 21.1 µM. The GI50 in the assay with SR leukemia was 29.1 µM. For the same compound, the TGI in the assay with NCI/ADR-RES ovarian, with HT29 colon, with HCT-116 colon, in the assay on MALME-3M melanoma, in the assay with OVCAR-3 ovarian and in the assay on KM12 colon was > 100 µM throughout. For the same compound, the TGI in the assay on SR leukemia is > 100 µM.
Take `Cc1c2cc[n+](C)cc2c(C)c2c1[nH]c1ccc(Cl)cc12`: the TGI is 2.56 µM with SNB-78 CNS; 35.7 µM in the assay on DMS 273 small cell lung; > 100 µM with NCI/ADR-RES ovarian; 44.9 µM in the assay on HT29 colon; 2.59 µM in the assay on LXFL 529 NSCLC; 22.7 µM in the assay with HOP-18 NSCLC. Also, the TGI with HCT-116 colon is 32.2 µM; with MALME-3M melanoma it was 10.4 µM; in the assay with OVCAR-3 ovarian, 22.6 µM; with DLD-1 colon, > 100 µM; with KM12 colon, 35.5 µM; in the assay on SR leukemia, > 78.1 µM.
In the case of `Nc1cccc2c1C1=NNC(=O)CC1C2` (centres undefined), the TGI in the assay with SNB-78 CNS was > 100 µM; with DMS 273 small cell lung, > 100 µM; in the assay with NCI/ADR-RES ovarian it was > 100 µM; in the assay with HT29 colon, > 22.9 µM; in the assay on XF 498 CNS, > 100 µM; in the assay with HCT-116 colon, > 100 µM. Moreover, the TGI in the assay with MALME-3M melanoma, in the assay on OVCAR-3 ovarian, in the assay on DLD-1 colon and in the assay with KM12 colon was > 100 µM in each case.
For the compound `O=C(NCCNc1nccc(-c2c(-c3cccc(O)c3)nc3sccn23)n1)Nc1cccc(C(F)(F)F)c1`, the GI50 in the assay on NCI/ADR-RES ovarian was 26.9 µM; with HT29 colon, 3.45 µM; in the assay with HCT-116 colon it was 3.56 µM; in the assay with MALME-3M melanoma, 2.09 µM; in the assay with OVCAR-3 ovarian it was 5.52 µM; with KM12 colon, 2.78 µM. Further, the GI50 in the assay with SR leukemia is 6.08 µM. For the same compound, the TGI is > 100 µM in the assay with NCI/ADR-RES ovarian; 10.8 µM in the assay with HT29 colon; 11.5 µM in the assay with HCT-116 colon; 7.3 µM in the assay with MALME-3M melanoma; 22.7 µM in the assay on OVCAR-3 ovarian; 6.98 µM in the assay on KM12 colon. The TGI in the assay with SR leukemia worked out at 40 µM.
In the case of `COc1cc(NC(=O)CSc2nc3ccccc3c(=O)n2CCc2ccccc2)cc(OC)c1OC`, the GI50 in the assay on NCI/ADR-RES ovarian was 3.77 µM; with MALME-3M melanoma, 2.16 µM. Moreover, the figures for the TGI in the assay on NCI/ADR-RES ovarian and with MALME-3M melanoma were > 100 µM and 5.9 µM, respectively.
For `O=C(Nc1cccc([N+](=O)[O-])c1)C(=O)C(C(=O)c1ccccc1F)C1OC(=O)C2C=CC=CC21` (centres undefined), the TGI in the assay with SNB-78 CNS is > 100 µM; in the assay with DMS 273 small cell lung, > 100 µM; in the assay with HT29 colon, > 100 µM; in the assay on LXFL 529 NSCLC, > 100 µM; in the assay with XF 498 CNS it was > 100 µM; in the assay on HCT-116 colon it was 48.3 µM. The TGI in the assay with DLD-1 colon was > 100 µM; in the assay on KM12 colon, > 100 µM; in the assay with SR leukemia it was 84.7 µM.
Regarding `c1ccc(CCN2CCOCC2)nc1`, the TGI with NCI/ADR-RES ovarian, in the assay on HT29 colon, in the assay on HCT-116 colon, in the assay with MALME-3M melanoma, in the assay on OVCAR-3 ovarian and in the assay on KM12 colon was > 100 µM each time. Moreover, the TGI in the assay on SR leukemia is > 100 µM.
On to `NC(=O)Nc1ccc(C(=O)NCCCNC(=O)c2ccc(NC(N)=O)cc2)cc1`, for which the TGI in the assay on NCI/ADR-RES ovarian, in the assay with HT29 colon, with HCT-116 colon, in the assay on MALME-3M melanoma, with KM12 colon and in the assay on SR leukemia was > 100 µM each time.
